Consider three compounds from patent US20220105051A1, “COMPOUNDS FOR INCREASING MHC-I EXPRESSION AND MODULATING HISTONE DEACETYLASE ACTIVITY” (Cava Healthcare Inc., priority 2019, published 2022).

SMILES strings stand for the structures. “Also recorded” adds a separate entry of the source.

Assay type in all cases: biochemical
What all share (conditions): purified enzyme, 5 to 0.02 μM

One assay has as its target T1, HDAC5 (Homo sapiens, UniProt Q9UQL6).
T1 construct: purchased BPS Biosciences
The experiment in a line: Individualized HDAC assay, HDAC5. As to the method: (§1) The activity of the curcuphenol analogues was assessed with purified HDAC enzymes from all classes I, II, and IV, as well as a select member of HDAC class III (SIRT1). HDACs 1-9 and SIRT1 were evaluated using HDAC Fluorogenic Assay Kits (BPS Biosciences). All assays were completed in black-sided clear-bottom 96 well plates (PerkinElmer), and all treatments were plated in triplicates. Treatment started at 5 μM and was two-fold diluted to a concentration 0.02 μM. The assays were measured using the Synergy HI hybrid reader (BioTek) and Gen5 software (BioTek), excitation was set to 360 nm and detection was measured at 450 nm with a gain of 100. Alternatively HDAC 10 and 11 (BPS Biosciences) were optimized for HDAC concentration using the HDAC-Glo™ I/II Assay and Screening System (Promega). Following optimization each HDAC was run following the Promega protocol in black-sided clear-bottomed 96 well plates in triplicates with same treatments listed above (PerkinElmer). Luminescence was read 30 minutes after HDAC-Glo™I/II reagent was added using the Synergy HI hybrid reader (BioTek) and Gen5 software (Bio-Tek). […] To calculate percent activity, the average of blank wells was subtracted from all treatment groups. The relative mean of activity of the HDAC being measured was determined and all wells that received treatment were divided this average, to give a percentage of activity.
(§2) To evaluate the effect of the compounds on specific HDACs, their activity was assessed with purified HDAC enzymes from all classes I, II, and IV, as well as a select member of HDAC class III (SIRT1). HDACs 1-9 and SIRT1 were evaluated using HDAC Fluorogenic Assay Kits (BPS Biosciences) following the manufacturer's recommendations. Compound treatment started at 5 μM and was two-fold diluted to a concentration 0.02 μM. Alternatively, HDAC 10 and 11 assays (BPS Biosciences) were optimized to be used with the HDAC-Glo™ I/II Assay and Screening System (Promega). The assays were measured using the Synergy HI hybrid reader (BioTek) and Gen5 software (Bio-Tek). […] To calculate the fold change in HDAC activity, the values from each treated well were divided by the relative mean of activity of the specific HDAC being measured.

For the next assay, the target named is T2, HDAC11 (Homo sapiens, UniProt Q96DB2).
T2 construct: purchased BPS Biosciences
T2 sequence (Q96DB2 1-347): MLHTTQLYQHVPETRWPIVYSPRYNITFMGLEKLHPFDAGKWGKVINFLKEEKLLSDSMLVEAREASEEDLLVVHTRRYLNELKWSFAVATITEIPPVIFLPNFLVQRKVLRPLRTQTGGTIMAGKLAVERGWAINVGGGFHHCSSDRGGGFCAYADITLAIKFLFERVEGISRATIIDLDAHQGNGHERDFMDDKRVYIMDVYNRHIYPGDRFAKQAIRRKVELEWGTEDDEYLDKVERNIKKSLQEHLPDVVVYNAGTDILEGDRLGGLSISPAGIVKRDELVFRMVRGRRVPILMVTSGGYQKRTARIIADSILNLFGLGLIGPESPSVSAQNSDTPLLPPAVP
The assay is described as follows: Individualized HDAC assay, HDAC11 (HDAC-Glo). As to the method:
as §1
as §2, with “Alternatively, HDAC 10 and 11 assays (BPS Biosciences) were optimized to be used with the HDAC-Glo™ I/II Assay and Screening System (Promega).” left out

In the next assay the target is T3, HDAC6 (Homo sapiens, UniProt Q9UBN7).
T3 construct: purchased BPS Biosciences
T3 sequence (Q9UBN7 1-1215): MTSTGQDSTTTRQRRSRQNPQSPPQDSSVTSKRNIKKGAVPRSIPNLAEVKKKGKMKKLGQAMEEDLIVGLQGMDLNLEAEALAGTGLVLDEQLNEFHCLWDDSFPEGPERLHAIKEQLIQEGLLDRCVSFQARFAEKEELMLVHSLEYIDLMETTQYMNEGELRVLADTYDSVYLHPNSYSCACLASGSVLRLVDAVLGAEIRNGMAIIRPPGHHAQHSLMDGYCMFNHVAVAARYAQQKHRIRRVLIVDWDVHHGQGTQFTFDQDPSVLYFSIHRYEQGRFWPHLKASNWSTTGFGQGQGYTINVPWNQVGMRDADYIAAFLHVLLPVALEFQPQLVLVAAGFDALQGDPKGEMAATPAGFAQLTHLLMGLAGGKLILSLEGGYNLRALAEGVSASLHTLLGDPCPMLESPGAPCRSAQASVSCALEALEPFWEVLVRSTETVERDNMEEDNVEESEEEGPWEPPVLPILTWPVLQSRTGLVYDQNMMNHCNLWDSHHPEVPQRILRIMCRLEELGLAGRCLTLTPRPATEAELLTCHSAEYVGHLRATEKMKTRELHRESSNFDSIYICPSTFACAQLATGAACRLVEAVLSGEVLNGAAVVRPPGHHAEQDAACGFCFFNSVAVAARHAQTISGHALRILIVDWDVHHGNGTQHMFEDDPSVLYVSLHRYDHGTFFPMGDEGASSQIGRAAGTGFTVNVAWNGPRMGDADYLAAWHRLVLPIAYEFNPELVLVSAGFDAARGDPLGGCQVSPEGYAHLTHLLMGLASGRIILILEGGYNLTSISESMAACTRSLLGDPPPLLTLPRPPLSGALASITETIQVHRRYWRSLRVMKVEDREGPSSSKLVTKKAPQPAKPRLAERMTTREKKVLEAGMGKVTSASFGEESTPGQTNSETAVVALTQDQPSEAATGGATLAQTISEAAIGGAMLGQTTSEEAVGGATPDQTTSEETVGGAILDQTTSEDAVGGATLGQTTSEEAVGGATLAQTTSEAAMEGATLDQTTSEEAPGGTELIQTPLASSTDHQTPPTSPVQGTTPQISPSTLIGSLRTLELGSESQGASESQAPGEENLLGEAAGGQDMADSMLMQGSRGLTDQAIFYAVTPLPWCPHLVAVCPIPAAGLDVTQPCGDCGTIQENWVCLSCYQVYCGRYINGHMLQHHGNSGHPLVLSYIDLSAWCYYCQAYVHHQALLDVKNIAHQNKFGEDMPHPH
The experiment in a line: Individualized HDAC assay, HDAC6. As to the method:
as §1
as §2, with “Alternatively, HDAC 10 and 11 assays (BPS Biosciences) were optimized to be used with the HDAC-Glo™ I/II Assay and Screening System (Promega).” left out

Another assay deals with T4, HDAC2 (Homo sapiens, UniProt Q92769).
T4 construct: purchased BPS Biosciences
The assay is described as follows: Individualized HDAC assay, HDAC2. As to the method: The activity of the curcuphenol analogues was assessed with purified HDAC enzymes from all classes I, II, and IV, as well as a select member of HDAC class III (SIRT1). HDACs 1-9 and SIRT1 were evaluated using HDAC Fluorogenic Assay Kits (BPS Biosciences). All assays were completed in black-sided clear-bottom 96 well plates (PerkinElmer), and all treatments were plated in triplicates. Treatment started at 5 μM and was two-fold diluted to a concentration 0.02 μM. The assays were measured using the Synergy HI hybrid reader (BioTek) and Gen5 software (BioTek), excitation was set to 360 nm and detection was measured at 450 nm with a gain of 100. […] Luminescence was read 30 minutes after HDAC-Glo™I/II reagent was added using the Synergy HI hybrid reader (BioTek) and Gen5 software (Bio-Tek). […] The relative mean of activity of the HDAC being measured was determined and all wells that received treatment were divided this average, to give a percentage of activity.
To evaluate the effect of the compounds on specific HDACs, their activity was assessed with purified HDAC enzymes from all classes I, II, and IV, as well as a select member of HDAC class III (SIRT1). HDACs 1-9 and SIRT1 were evaluated using HDAC Fluorogenic Assay Kits (BPS Biosciences) following the manufacturer's recommendations. […] The assays were measured using the Synergy HI hybrid reader (BioTek) and Gen5 software (Bio-Tek). […]

T1 sequence (Q9UQL6 whole entry): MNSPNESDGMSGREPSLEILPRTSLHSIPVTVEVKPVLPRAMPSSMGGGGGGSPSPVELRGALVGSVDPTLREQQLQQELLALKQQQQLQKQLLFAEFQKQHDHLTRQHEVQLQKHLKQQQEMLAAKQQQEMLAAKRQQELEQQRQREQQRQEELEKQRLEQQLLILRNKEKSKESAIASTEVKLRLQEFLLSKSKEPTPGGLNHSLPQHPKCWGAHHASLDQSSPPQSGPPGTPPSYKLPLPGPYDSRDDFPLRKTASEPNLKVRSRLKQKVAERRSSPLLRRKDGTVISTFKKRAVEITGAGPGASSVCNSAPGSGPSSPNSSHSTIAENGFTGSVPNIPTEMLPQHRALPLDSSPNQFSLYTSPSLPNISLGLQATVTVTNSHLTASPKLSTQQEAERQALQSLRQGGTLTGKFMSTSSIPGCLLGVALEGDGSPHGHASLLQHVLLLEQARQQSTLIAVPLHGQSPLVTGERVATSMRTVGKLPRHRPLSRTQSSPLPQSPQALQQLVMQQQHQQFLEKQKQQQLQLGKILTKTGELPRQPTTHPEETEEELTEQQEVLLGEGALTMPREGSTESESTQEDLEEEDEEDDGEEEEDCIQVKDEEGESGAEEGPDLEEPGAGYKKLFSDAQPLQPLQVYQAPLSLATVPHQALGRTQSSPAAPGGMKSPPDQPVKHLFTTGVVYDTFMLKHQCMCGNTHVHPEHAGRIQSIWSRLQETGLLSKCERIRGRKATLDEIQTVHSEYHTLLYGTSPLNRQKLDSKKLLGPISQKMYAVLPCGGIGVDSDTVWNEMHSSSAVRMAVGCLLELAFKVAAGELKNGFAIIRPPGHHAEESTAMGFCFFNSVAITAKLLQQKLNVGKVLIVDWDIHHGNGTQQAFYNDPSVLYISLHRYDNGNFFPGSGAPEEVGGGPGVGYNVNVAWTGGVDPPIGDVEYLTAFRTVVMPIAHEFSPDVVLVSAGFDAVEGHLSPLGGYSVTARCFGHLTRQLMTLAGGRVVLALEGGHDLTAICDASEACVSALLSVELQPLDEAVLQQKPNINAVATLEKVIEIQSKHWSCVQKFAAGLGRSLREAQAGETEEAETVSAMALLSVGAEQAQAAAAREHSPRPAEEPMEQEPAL
T4 sequence (Q92769 whole entry): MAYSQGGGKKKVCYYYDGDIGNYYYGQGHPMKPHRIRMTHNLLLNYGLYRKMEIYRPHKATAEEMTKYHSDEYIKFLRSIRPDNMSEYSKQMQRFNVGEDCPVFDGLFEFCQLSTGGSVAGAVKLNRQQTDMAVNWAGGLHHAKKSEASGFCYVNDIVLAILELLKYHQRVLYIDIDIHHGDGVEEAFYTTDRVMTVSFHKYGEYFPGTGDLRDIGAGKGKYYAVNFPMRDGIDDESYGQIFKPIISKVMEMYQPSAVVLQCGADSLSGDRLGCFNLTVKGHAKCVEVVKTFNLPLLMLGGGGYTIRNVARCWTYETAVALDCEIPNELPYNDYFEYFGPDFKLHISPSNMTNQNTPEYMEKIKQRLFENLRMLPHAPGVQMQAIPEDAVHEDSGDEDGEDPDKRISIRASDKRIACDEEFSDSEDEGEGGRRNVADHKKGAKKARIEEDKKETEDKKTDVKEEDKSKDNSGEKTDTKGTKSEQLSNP

As for `CC(C)=CCC[C@H](C)c1ccc(C)cc1O` [Curcuphenol, curcuphenol], on HDAC5, the HDAC5 activity entry is given as “activates”.

With `CC(C)=CCCCc1ccc(C)cc1O` [P02-113], the HDAC5 activity result at HDAC5 was “enhanced; also recorded: increase in activity levels”. In addition, the HDAC11 activity result on HDAC11 is reported as “unaffected; also recorded: no effect was observed; also recorded: no change in activity”. In addition, at HDAC6, the HDAC6 activity result is listed as “no change in activity; also recorded: did not affect the activity; also recorded: unaffected”. Also, at HDAC2, the HDAC2 activity entry is reported as “no significant change in HDAC activity”.

Consider `COc1ccc(C(C)CCC=C(C)C)c(O)c1` (stereo not drawn) [P03-97-1], for which the HDAC5 activity entry was “enhanced; also recorded: increase in activity levels” at HDAC5 and “enhanced” at HDAC5 (listed as PO-3-97-1). Moreover, the figures for the HDAC11 activity entry on HDAC11 and on HDAC11 (listed as PO-3-97-1) were “unaffected; also recorded: no change in activity” and “no effect was observed”, respectively. Moreover, the HDAC6 activity entry is “no change in activity; also recorded: unaffected” on HDAC6 and “did not affect the activity” at HDAC6 (listed as PO-3-97-1). Besides, the HDAC2 activity result at HDAC2 is given as “no significant change in HDAC activity”.
